According to paper PMC4744035, “In Vivo, In Vitro, and In Silico Characterization of Peptoids as Antimicrobial Agents” (PLoS ONE, 2016):
In brackets after ≈: the same amount, converted by molar mass. Square brackets hold non-standard residues; d marks the D form. Peptide text beside a SMILES is read from it. Nspe = C[C@H](NCC(=O)O)c1ccccc1; Nlys = NCCCCNCC(=O)O

Experiments:
erythrocytes = test: Hemolytic activity (HD10/HD50); type: cell-based; conditions: erythrocytes
From the text: Table 1 Characteristics of antimicrobial peptoids, screened for activity against B. subtilis and E. coli bacterial strains. | column: HD10 / HD50

S. aureus ATCC25923 = test: microbe, parasite or virus in culture; conditions: S. aureus ATCC25923
In short: (§1)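 Agents were diluted serially at 10x in acetic acid/BSA, added to Mueller Hinton medium, then inoculated with bacteria at 2–7 x 10^5 CFU/mL. Plates were incubated overnight at 37°C and scored for growth.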

E. faecalis W61950 (VRE) = test: microbe, parasite or virus in culture; conditions: E. faecalis W61950 (VRE)
In short: as §1

E. coli 63103 (ESBL) = test: microbe, parasite or virus in culture; conditions: E. coli 63103 (ESBL)
In short: as §1

[1] = tested on: E. cloacae 218R Class C β-lactamase; test: microbe, parasite or virus in culture; conditions: E. cloacae 218R Class C β-lactamase
In short: as §1

E. faecium mic80 (VRE) = test: microbe, parasite or virus in culture; conditions: E. faecium mic80 (VRE)
In short: as §1

[2] = tested on: P. aeruginosa LES400 (MDR); test: microbe, parasite or virus in culture; conditions: P. aeruginosa LES400 (MDR)
In short: as §1

[3] = tested on: K. pneumonia 63575 (ESBL); test: microbe, parasite or virus in culture; conditions: K. pneumonia 63575 (ESBL)
In short: as §1

P. maltophilia ATCC13637 = test: microbe, parasite or virus in culture; conditions: P. maltophilia ATCC13637
In short: as §1

[4] = Acute toxicity screen in healthy mice; type: in vivo; conditions: three healthy mice, 4 mg/kg (100 μg per mouse) intraperitoneally
Method: This dosage was selected to be on the conservative end of the dosage range typically evaluated for AMPs (1 mg/kg to 24 mg/kg) in other animal studies. To screen for acute signs of toxicity, three healthy mice were injected intraperitoneally with 4 mg/kg (100 μg per mouse) of peptoid 1, and a second control group with an equivalent volume of saline.

Q: Which “HD10 (hemolytic activity)” value (erythrocytes; first value of HD10 / HD50 cell) does the source give for C[C@@H](c1ccccc1)N(CC(N)=O)C(=O)CN(C(=O)CN(CCCCN)C(=O)CN(C(=O)CN(C(=O)CN(CCCCN)C(=O)CN(C(=O)CN(C(=O)CN(CCCCN)C(=O)CN(C(=O)CN(C(=O)CNCCCCN)[C@@H](C)c1ccccc1)[C@@H](C)c1ccccc1)[C@@H](C)c1ccccc1)[C@@H](C)c1ccccc1)[C@@H](C)c1ccccc1)[C@@H](C)c1ccccc1)[C@@H](C)c1ccccc1 [Peptoid 1, H-(NLys-Nspe-Nspe)4-NH2] (H-[Nlys][Nspe][Nspe][Nlys][Nspe][Nspe][Nlys][Nspe][Nspe][Nlys][Nspe][Nspe]-NH2) here?
A: The value was 21.

Q: What about the “HD50 (hemolytic activity)” value (erythrocytes; second value of HD10 / HD50 cell) of the same molecule?
A: Its value is 100.

Q: What about the MIC (S. aureus ATCC25923) of the same molecule?
A: Its MIC is 2 µg/mL (≈ 1.1 µM).

Q: And the MIC (E. faecalis W61950 (VRE))?
A: Its MIC is 8 µg/mL (≈ 4.4 µM).

Q: What about the MIC (E. coli 63103 (ESBL)) of the same molecule?
A: The MIC was 2 µg/mL (≈ 1.1 µM).

Q: And the MIC [1]?
A: The MIC was 2 µg/mL (≈ 1.1 µM).

Q: What about the MIC (E. faecium mic80 (VRE)) of the same molecule?
A: Its MIC is 2 µg/mL (≈ 1.1 µM).

Q: And the MIC [2]?
A: The MIC was 2 µg/mL (≈ 1.1 µM).

Q: What about the MIC [3] of the same molecule?
A: Its MIC is 4 µg/mL (≈ 2.2 µM).

Q: What about the MIC (P. maltophilia ATCC13637) of the same molecule?
A: Its MIC is 2 µg/mL (≈ 1.1 µM).

Q: And the “acute signs of toxicity, 24 hours post-injection observation” value [4]?
A: The value was “all mice appeared to be healthy and exhibited normal activity and no weight loss or abject morbidity”.
